These molecules were tested against Programmed cell death 1 ligand/protein 1 (Homo sapiens, UniProt Q9NZQ7+Q15116) (assay: Activity of Compounds to Inhibit PD-1/PD-L1 Interaction).
Chain of Programmed cell death 1 ligand/protein 1 (Q9NZQ7 whole entry): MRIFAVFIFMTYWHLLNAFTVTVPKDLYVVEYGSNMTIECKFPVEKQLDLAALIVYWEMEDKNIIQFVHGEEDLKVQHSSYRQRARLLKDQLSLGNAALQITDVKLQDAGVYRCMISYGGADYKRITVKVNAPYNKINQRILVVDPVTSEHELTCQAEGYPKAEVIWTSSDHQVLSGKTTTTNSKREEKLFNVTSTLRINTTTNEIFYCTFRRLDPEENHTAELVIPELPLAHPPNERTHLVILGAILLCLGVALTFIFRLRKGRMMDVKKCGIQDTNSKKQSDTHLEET
Chain of Programmed cell death 1 ligand/protein 1 (Q15116 whole entry): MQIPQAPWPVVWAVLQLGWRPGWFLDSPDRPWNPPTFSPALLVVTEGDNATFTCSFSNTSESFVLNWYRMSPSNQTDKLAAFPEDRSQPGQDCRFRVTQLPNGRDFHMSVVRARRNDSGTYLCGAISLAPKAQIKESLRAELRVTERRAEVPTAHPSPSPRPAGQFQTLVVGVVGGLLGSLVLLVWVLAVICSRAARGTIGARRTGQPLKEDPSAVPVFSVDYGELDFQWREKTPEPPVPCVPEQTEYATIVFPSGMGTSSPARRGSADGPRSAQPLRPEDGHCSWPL
With Cc1c(CNc2cc(OCc3cncc(C#N)c3)c(CNC(CO)C(=O)O)cc2Cl)cccc1-c1ccccc1 (stereo unspecified) [US20230303494, Compound 13] the IC50 was 26 nM. With COc1cc(NCc2cccc(-c3ccccc3)c2C)c(C)cc1CNC(CO)C(=O)O (stereo unspecified) [US20230303494, Compound 14] the IC50 was 253 nM. With Cc1c(CNc2cc(OCc3cncc(C#N)c3)c(CNC(CO)C(=O)O)cc2Cl)cccc1-c1ccc2c(c1)OCCO2 (stereo unspecified) [US20230303494, Compound 36] the IC50 was 131 nM. Cc1cc(CNC(CO)C(=O)O)c(OCc2cncc(C#N)c2)cc1NCc1cccc(-c2ccccc2)c1Br (stereo unspecified) [US20230303494, Compound 32] was tested, and the IC50 was 31 nM. Cc1cc(CNC(CO)C(=O)O)c(OCc2cncc(C#N)c2)cc1NCc1cccc(-c2ccc3c(c2)OCCO3)c1C (stereo unspecified) [US20230303494, Compound 35] showed an IC50 of 44 nM. With N#Cc1cncc(COc2cc(NCc3cccc(-c4ccccc4)c3Br)ccc2CNC(CO)C(=O)O)c1 (stereo unspecified) [US20230303494, Compound 31] the IC50 was 206 nM.

Source: BindingDB's records for patent US20230303494 (Academy of Military Medical Sciences, 2023)
